The test system of this assay is P388 leukemia ip, CD2F1 mice, survival T/C. Put plainly: NCI In Vivo Anticancer Drug Screen. Data for tumor model P388 Leukemia (intraperitoneal) in CD2F1 (CDF1) mice. The following applies: endpoint: median survival time, higher = longer survival. The procedure, abridged:
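Mice carrying the transplanted tumor received test compound or vehicle. Survival was recorded in each group, and the value is the treated-group measurement divided by that of the vehicle-treated control group.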

[1] abbreviates: dose: 6.25 mg/kg/injection, schedule: Q01DX009 (ip), vehicle: saline.
[2] abbreviates: dose: 12.5 mg/kg/injection, schedule: Q01DX009 (ip), vehicle: saline.
Where [3] appears, read: dose: 25.0 mg/kg/injection, schedule: Q01DX009 (ip), vehicle: saline.
Setting [4] is: dose: 60.0 mg/kg/injection, schedule: Q01DX005 (ip), vehicle: saline with Tween-80.
[5] abbreviates: dose: 120.0 mg/kg/injection, schedule: Q01DX005 (ip), vehicle: saline with Tween-80.
Where [6] appears, read: dose: 240.0 mg/kg/injection, schedule: Q01DX005 (ip), vehicle: saline with Tween-80.
The mark [7] stands for this setting: dose: 50.0 mg/kg/injection, schedule: Q01DX005 (ip), vehicle: Klucel (hydroxypropylcellulose) (HPC).
Where [8] appears, read: dose: 100.0 mg/kg/injection, schedule: Q01DX005 (ip), vehicle: Klucel (hydroxypropylcellulose) (HPC).

Where “and” joins values, the source holds several entries; their conditions need not be identical. Identical values can stand only once. Toxic doses and inconclusive results are not listed.

As for `O=C(Nc1cccc(C(=O)Nc2ccc(C3=NCCN3)cc2)c1)c1ccc(C2=NCCN2)cc1`, the T/C runs as follows: under setting [1], 118 % of control; (dose: 6.25 mg/kg/injection, schedule: Q04DX003 (ip), vehicle: saline) 100 % of control; under setting [2], 118 % of control; (dose: 12.5 mg/kg/injection, schedule: Q04DX003 (ip), vehicle: saline) 100 % of control; (dose: 25.0 mg/kg/injection, schedule: Q04DX003 (ip), vehicle: saline) 100 % of control.
Consider `NNC(=S)N/N=C/c1ccccn1`, for which the T/C by setting is: (dose: 0.78 mg/kg/injection, schedule: Q01DX009 (ip), vehicle: saline) 99 % of control; (dose: 1.56 mg/kg/injection, schedule: Q01DX009 (ip), vehicle: saline) 102 % of control and 117 % of control; (dose: 1.56 mg/kg/injection, schedule: Q01DX009 (ip), vehicle: suspension in saline) 107 % of control; (dose: 3.12 mg/kg/injection, schedule: Q01DX009 (ip), vehicle: suspension in saline) 109 % of control; (dose: 6.25 mg/kg/injection, schedule: Q01DX009 (ip), vehicle: saline with Tween-80) 100 % of control; under setting [1], 110 % of control. The T/C by setting is: (dose: 6.25 mg/kg/injection, schedule: Q01DX009 (ip), vehicle: suspension in saline) 111 % of control; under setting [2], 150 % of control; (dose: 16.5 mg/kg/injection, schedule: Q01DX009 (ip), vehicle: saline sonified) 122 % of control; (dose: 25.0 mg/kg/injection, schedule: Q01DX009 (ip), vehicle: saline with Tween-80) 150 % of control; under setting [3], 154 % of control and 170 % of control.
Turning to `Cc1cc2n(n1)C(=O)CC(=O)C2`, the T/C is, setting by setting: under setting [4], 98 % of control; under setting [5], 100 % of control; under setting [6], 109 % of control.
In the case of `CC1NC(=O)N(C2CCCCCCC2)C1=O` (stereo not given), the T/C runs as follows: under setting [7], 102 % of control; under setting [8], 114 % of control; (dose: 200.0 mg/kg/injection, schedule: Q01DX005 (ip), vehicle: Klucel (hydroxypropylcellulose) (HPC)) 102 % of control.
As for `c1ccc2c(c1)CCc1ccccc1C2NC1=NCCO1`, the T/C is 90 % of control (dose: 12.5 mg/kg/injection, schedule: Q04DX003 (ip), vehicle: saline with Tween-80); 90 % of control (dose: 25.0 mg/kg/injection, schedule: Q04DX003 (ip), vehicle: saline with Tween-80); 86 % of control (dose: 50.0 mg/kg/injection, schedule: Q04DX003 (ip), vehicle: saline with Tween-80).
Take `NC(COC(=O)NCCCl)C(=O)O` (stereo not given): the T/C is, setting by setting: (dose: 50.0 mg/kg/injection, schedule: Q01DX009 (ip), vehicle: Klucel (hydroxypropylcellulose) (HPC)) 88 % of control; (dose: 100.0 mg/kg/injection, schedule: Q01DX009 (ip), vehicle: Klucel (hydroxypropylcellulose) (HPC)) 93 % of control; (dose: 200.0 mg/kg/injection, schedule: Q01DX009 (ip), vehicle: Klucel (hydroxypropylcellulose) (HPC)) 111 % of control.
`COc1ccc2c3c([nH]c2c1[N+](=O)[O-])C(C)N(C)CC3` (stereo not given): the T/C was 107 % of control (dose: 8.5 mg/kg/injection, schedule: Q01DX005 (ip), vehicle: Klucel (hydroxypropylcellulose) (HPC)) and 101 % of control (dose: 17.0 mg/kg/injection, schedule: Q01DX005 (ip), vehicle: Klucel (hydroxypropylcellulose) (HPC)).
In the case of `CC(C)N(CCn1cnc2c(N)ncnc21)C(C)C`, the T/C runs as follows: under setting [7], 100 % of control; under setting [8], 97 % of control.
For the compound `CSCSCC(N)CO` (stereo not given), the T/C reads like this: (dose: 25.0 mg/kg/injection, schedule: Q01DX005 (ip), vehicle: water) 95 % of control; (dose: 50.0 mg/kg/injection, schedule: Q01DX005 (ip), vehicle: water) 100 % of control; (dose: 100.0 mg/kg/injection, schedule: Q01DX005 (ip), vehicle: water) 89 % of control; (dose: 200.0 mg/kg/injection, schedule: Q01DX005 (ip), vehicle: water) 95 % of control; (dose: 400.0 mg/kg/injection, schedule: Q01DX005 (ip), vehicle: water) 89 % of control.
As for `C=C(C)C1CCC(C)CC(=O)C1` (stereo not given), the T/C is 100 % of control (dose: 100.0 mg/kg/injection, schedule: Q04DX003 (ip), vehicle: saline + Tween-80 + alcohol); 91 % of control (dose: 200.0 mg/kg/injection, schedule: Q04DX003 (ip), vehicle: saline + Tween-80 + alcohol); 91 % of control (dose: 400.0 mg/kg/injection, schedule: Q04DX003 (ip), vehicle: saline + Tween-80 + alcohol).
`CCCN1CCN(c2ccc([N+](=O)[O-])c3no[n+]([O-])c23)CC1`: the T/C was 98 % of control and 97 % of control (dose: 1.25 mg/kg/injection, schedule: Q01DX009 (ip), vehicle: saline); 100 % of control and 107 % of control (dose: 2.5 mg/kg/injection, schedule: Q01DX009 (ip), vehicle: saline); 100 % of control and 108 % of control (dose: 5.0 mg/kg/injection, schedule: Q01DX009 (ip), vehicle: saline); 110 % of control and 120 % of control (dose: 10.0 mg/kg/injection, schedule: Q01DX009 (ip), vehicle: saline).
Turning to `CCC[CH2][Sn]([CH3])([CH2]CC[N+](C)(C)C)[O]C(C)=O` (stereo not given), the T/C under setting [2] was 105 % of control; the T/C under setting [3] is 106 % of control; the T/C (dose: 50.0 mg/kg/injection, schedule: Q01DX009 (ip), vehicle: saline) was 100 % of control and 115 % of control.
`Cc1nccc(N[N+](=O)[O-])c1C`: the T/C by setting is: (dose: 12.5 mg/kg/injection, schedule: Q01DX009 (ip), vehicle: other) 100 % of control; (dose: 25.0 mg/kg/injection, schedule: Q01DX009 (ip), vehicle: other) 93 % of control; (dose: 50.0 mg/kg/injection, schedule: Q01DX009 (ip), vehicle: other) 117 % of control; (dose: 100.0 mg/kg/injection, schedule: Q01DX009 (ip), vehicle: other) 100 % of control; (dose: 200.0 mg/kg/injection, schedule: Q01DX009 (ip), vehicle: other) 103 % of control.
As for `Cc1ncc(C[n+]2cccc(CCO)c2C)c(N)n1`, the T/C (dose: 50.0 mg/kg/injection, schedule: Q04DX003 (ip), vehicle: saline) was 97 % of control; the T/C (dose: 100.0 mg/kg/injection, schedule: Q04DX003 (ip), vehicle: saline) is 103 % of control; the T/C (dose: 200.0 mg/kg/injection, schedule: Q04DX003 (ip), vehicle: saline) is 100 % of control.
`O=C(COc1nccc2nc(-c3ccccc3)cn12)c1ccccc1`: the T/C is, setting by setting: (dose: 1.56 mg/kg/injection, schedule: Q01DX009 (ip), vehicle: Klucel (hydroxypropylcellulose) (HPC)) 96 % of control; (dose: 3.12 mg/kg/injection, schedule: Q01DX009 (ip), vehicle: Klucel (hydroxypropylcellulose) (HPC)) 89 % of control; (dose: 6.25 mg/kg/injection, schedule: Q01DX009 (ip), vehicle: Klucel (hydroxypropylcellulose) (HPC)) 89 % of control and 92 % of control; (dose: 12.5 mg/kg/injection, schedule: Q01DX001 (ip), vehicle: Klucel (hydroxypropylcellulose) (HPC)) 95 % of control; (dose: 25.0 mg/kg/injection, schedule: Q01DX001 (ip), vehicle: Klucel (hydroxypropylcellulose) (HPC)) 95 % of control; (dose: 50.0 mg/kg/injection, schedule: Q01DX001 (ip), vehicle: Klucel (hydroxypropylcellulose) (HPC)) 96 % of control.
In the case of `Nc1ccc(CCCCc2ccc(S(=O)(=O)F)cc2Cl)c(Cl)c1`, the T/C by setting is: (dose: 15.0 mg/kg/injection, schedule: Q01DX005 (ip), vehicle: saline with Tween-80) 101 % of control; (dose: 30.0 mg/kg/injection, schedule: Q01DX005 (ip), vehicle: saline with Tween-80) 118 % of control; (dose: 50.0 mg/kg/injection, schedule: Q01DX009 (ip), vehicle: saline with Tween-80) 91 % of control; under setting [4], 93 % of control; (dose: 100.0 mg/kg/injection, schedule: Q01DX009 (ip), vehicle: saline with Tween-80) 99 % of control; under setting [5], 87 % of control. Moreover, the T/C reads like this: (dose: 200.0 mg/kg/injection, schedule: Q01DX009 (ip), vehicle: saline with Tween-80) 98 % of control; under setting [6], 92 % of control.
As for `NC1=NS(=O)(=O)Nc2nn(-c3ccccc3)nc21`, the T/C (dose: 100.0 mg/kg/injection, schedule: Q01DX001 (ip), vehicle: saline with Tween-80) is 107 % of control; the T/C (dose: 200.0 mg/kg/injection, schedule: Q01DX001 (ip), vehicle: saline with Tween-80) was 101 % of control; the T/C (dose: 400.0 mg/kg/injection, schedule: Q01DX001 (ip), vehicle: saline with Tween-80) is 99 % of control.
On to `Cc1ccc(C)c(NC(=O)CCC(=O)C(C)C(=O)c2ccccc2)c1` (stereo not given), for which the T/C is, setting by setting: under setting [4], 111 % of control; under setting [5], 102 % of control; under setting [6], 108 % of control.

The record behind these values is PubChem BioAssay AID330 (DTP/NCI, 2004).
